Counter-ions that a name gives are not always drawn.

The text below walks through data of US20080102121A1 (Elan Pharma International Limited, priority 1998, published 2008).

The conditions of series [1]: cited from earlier work.
For series [2] the following is noted: 10 mg oral dose, five adult males; cited from earlier work.
Series [3] in a line: Hydrocodone simulations (one-compartment model). The note with it: estimated from non-compartmental parameters.
Experimental: Studies of hydrocodone formulations of the present invention were conducted to simulate the profiles associated with twice-daily administration hydrocodone for both single dose and steady state. […] Non-compartmental parameters were used to find estimates of the unit input response and a one-compartment model was assumed for all simulations.
For the absorption rate constant k01, several profiles were simulated using different estimates of k01.
Options 1 and 2 assumed a first order release and option 3 a zero-order release.
The conditions of series [4]: in vivo; cited from earlier work.
The conditions of series [5]: in vivo; cited from earlier work. This is another data set of the same source.

In the case of “4-hydroxy-2-methyl-N-(5-methyl-2-thiazolyl)-2-H-1,2-benzothiazine-3-carboxamide 1,1-dioxide [Meloxicam]”, the “time of second meloxicam concentration peak” value in series [1] (fasted steady state conditions, post-dose) is “twelve to fourteen”. Besides, the bioavailability (as a rule, the share of a dose that reaches the circulation, judged against a reference dose that is usually intravenous) in series [1] (single 30 mg oral dose compared to 30 mg intravenous bolus injection) is reported as 89%.
With `COc1ccc2c3c1OC1C(=O)CCC4C(C2)N(C)CC[C@]314` (stereo partly drawn) [Hydrocodone, 4,5a-Epoxy-3-methoxy-1 7-methylmorphinan-6-one tartrate (1:1) hydrate (2:5)], in series [2], the Cmax (commonly the maximum level reached in the sampled fluid or tissue) is 23.6 ± 5.2 ng/mL; the Thalf was 3.8 ± 0.3 h; the Tmax – broadly, the time from dosing to the highest level – was 1.3 ± 0.3 h. Moreover, in series [3], the K10 was 0.18 and the V/f was 334.29 L. Also, the half life in series [4] was 4 to 8 h.
Turning to `CC(=O)Nc1ccc(O)cc1` [acetaminophen], the “doses reported as fatal” value in series [5] is on record as 15,000-20,0000 milligrams a day.
